Experimental data as given in patent US8350027B2, “Dual-acting pyrazole antihypertensive agents” (Theravance, Inc., priority 2009, dated 2013).

Legend:
[1] = target: T1, NEP enzyme (Homo sapiens, UniProt P08473); test: NEP enzyme inhibition assay (fluorogenic peptide substrate); format: biochemical; details: values given as lower bounds; * = prodrugs, may not exhibit NEP activity in an in vitro assay; read-out: NEP pIC50 (converted)
T1 construct: purchased R&D Systems, Minneapolis, Minn; 1182-ZN
Method: B. In Vitro Assays for the Quantitation of Inhibitor Potencies (IC50) at Human and Rat NEP, and Human ACE
The inhibitory activities of compounds at human and rat NEP and human ACE were determined using in vitro assays as described below.
Recombinant human NEP and recombinant human ACE were obtained commercially (R&D Systems, Minneapolis, Minn., catalog numbers 1182-ZN and 929-ZN, respectively). The fluorogenic peptide substrate Mca-BK2 (Mca-Arg-Pro-Pro-Gly-Phe-Ser-Ala-Phe-Lys(Dnp)-OH; Johnson et al. (2000) Anal. Biochem. 286: 112-118) was used for the human NEP and ACE assays, and Mca-RRL (Mca-DArg-Arg-Leu-(Dnp)-OH; Medeiros et al. (1997) Braz. J. Med. Biol. Res. 30:1157-1162) was used for the rat NEP assay (both from Anaspec, San Jose, Calif.).
The assays were performed in 384-well white opaque plates at room temperature using the respective fluorogenic peptides at a concentration of 10 μM in assay buffer (50 mM Tris/HCl at 25° C., 100 mM NaCl, 0.01% Tween-20, 1 μM Zn, 0.025% BSA). […] The rat NEP enzyme preparation was used at a concentration that yielded quantitative proteolysis of 3 μM of Mca-RRL within 20 minutes at room temperature.
Test compounds were diluted to 12 concentrations from 10 μM to 20 pM in Assay Buffer. Assays were started by adding 25 μL of enzyme to 12.5 μL of test compound at each of the 12 concentrations. Test compounds were allowed to equilibrate with the enzyme for 10 minutes before 12.5 μL of the fluorogenic substrates were added to initiate the reaction. Reactions were terminated by the addition of 10 μL of 3.6% glacial acetic acid after 20 minutes of incubation.
For sulfhydryl-containing test compounds, the test compounds may be diluted in Assay Buffer containing a 400 μM concentration of tris(2-carboxyethyl)phosphine hydrochloride (Thermo Scientific, Rockford, Ill.) (TCEP). The test compounds are then incubated for 40 minutes at room temperature (to allow for dimer cleavage) before adding the enzyme. Test compounds are then allowed to equilibrate with the enzyme for 20 minutes before adding the fluorogenic substrates. Reactions are terminated as above.
Plates were read on a fluorometer with excitation and emission wavelengths set to 320 nm and 405 nm, respectively. Raw data (relative fluorescence units) were normalized to % activity from the average high readings (no inhibition, 100% enzyme activity) and average low readings (full inhibition, highest inhibitor concentration, 0% enzyme activity) using three standard NEP and ACE inhibitors, respectively. Nonlinear regression of the normalized data was performed using a one site competition model (GraphPad Software, Inc., San Diego, Calif.). Data were reported as pIC50 values.

[2] = target: T2, human AT1 receptor (Homo sapiens, UniProt P30556); test: AT1 radioligand binding assay (displacement of [Eu]AngII); details: membranes of CHO-K1 cells expressing cloned human AT1 receptor; values given as lower bounds; read-out: AT1 pKi (converted)
T2 construct: expressed in transfected cells; host or cells: CHO-K1
T2 sequence (P30556 1-359): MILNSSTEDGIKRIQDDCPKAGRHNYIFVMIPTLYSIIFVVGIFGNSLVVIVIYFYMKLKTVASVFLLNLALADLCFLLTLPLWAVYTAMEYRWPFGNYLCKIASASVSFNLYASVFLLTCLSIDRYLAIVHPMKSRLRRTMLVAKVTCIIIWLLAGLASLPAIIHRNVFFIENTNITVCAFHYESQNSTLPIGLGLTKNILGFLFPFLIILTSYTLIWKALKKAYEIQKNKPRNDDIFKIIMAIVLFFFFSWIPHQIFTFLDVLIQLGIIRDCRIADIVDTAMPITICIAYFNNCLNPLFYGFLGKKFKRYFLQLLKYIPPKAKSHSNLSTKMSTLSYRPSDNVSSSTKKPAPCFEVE
Method: A. AT1 and AT2 Radioligand Binding Assays
These in vitro assays were used to assess the ability of test compounds to bind to the AT1 and the AT2 receptors.
Membrane Preparation from Cells Expressing Human AT1 or AT2 Receptors
Chinese hamster ovary (CHO-K1) derived cell lines stably expressing the cloned human AT1 or AT2 receptors, respectively, were grown in HAM's-F12 medium supplemented with 10% fetal bovine serum, 10 μg/ml penicillin/streptomycin, and 500 μg/ml geneticin in a 5% CO2 humidified incubator at 37° C. AT2 receptor expressing cells were grown in the additional presence of 100 nM PD123,319 (AT2 antagonist). When cultures reached 80-95% confluence, the cells were washed thoroughly in PBS and lifted with 5 mM EDTA. Cells were pelleted by centrifugation and snap frozen in MeOH-dry ice and stored at −80° C. until further use.
For membrane preparation, cell pellets were resuspended in lysis buffer (25 mM Tris/HCl pH 7.5 at 4° C., 1 mM EDTA, and one tablet of Complete Protease Inhibitor Cocktail Tablets with 2 mM EDTA per 50 mL buffer (Roche cat.#1697498, Roche Molecular Biochemicals, Indianapolis, Ind.)) and homogenized using a tight-fitting Dounce glass homogenizer (10 strokes) on ice. The homogenate was centrifuged at 1000×g, the supernatant was collected and centrifuged at 20,000×g. The final pellet was resuspended in membrane buffer (75 mM Tris/HCl pH 7.5, 12.5 mM MgCl2, 0.3 mM EDTA, 1 mM EGTA, 250 mM sucrose at 4° C.) and homogenized by extrusion through a 20G gauge needle. Protein concentration of the membrane suspension was determined by the method described in Bradford (1976) Anal Biochem. 72:248-54. Membranes were snap frozen in MeOH-dry ice and stored at −80° C. until further use.
Ligand Binding Assay to Determine Compound Affinities for the Human AT1 and AT2 Angiotensin Receptors
Binding assays were performed in 96-well Acrowell filter plates (Pall Inc., cat.#5020) in a total assay volume of 100 μL with 0.2 μg membrane protein for membranes containing the human AT1 receptor, or 2 μg membrane protein for membranes containing the human AT2 receptor in assay buffer (50 mM Tris/HCl pH 7.5 at 20° C., 5 mM MgCl2, 25 μM EDTA, 0.025% BSA). Saturation binding studies for determination of Kd values of the ligand were done using N-terminally Europium-labeled angiotensin-II ([Eu]AngII, H-(Eu-N^1)-Ahx-Asp-Arg-Val-Tyr-Ile-His-Pro-Phe-OH; PerkinElmer, Boston, Mass.) at 8 different concentrations ranging from 0.1 nM to 30 nM. […] Drugs were dissolved to a concentration of 1 mM in DMSO and from there serially diluted into assay buffer. Non-specific binding was determined in the presence of 10 μM unlabeled angiotensin-II. Assays were incubated for 120 minutes in the dark, at room temperature or 37° C., and binding reactions were terminated by rapid filtration through the Acrowell filter plates followed by three washes with 200 μL ice cold wash buffer (50 mM Tris/HCl pH 7.5 at 4° C., 5 mM MgCl2) using a Waters filtration manifold. Plates were tapped dry and incubated with 50 μl DELFIA Enhancement Solution (PerkinElmer cat.#4001-0010) at room temperature for 5 minutes on a shaker. Filter-bound [Eu]AngII was quantitated immediately on a Fusion plate reader (PerkinElmer) using Time Resolved Fluorescence (TRF). Binding data were analyzed by nonlinear regression analysis with the GraphPad Prism Software package (GraphPad Software, Inc., San Diego, Calif.) using the 3-parameter model for one-site competition. The BOTTOM (curve minimum) was fixed to the value for nonspecific binding, as determined in the presence of 10 μM angiotensin II. Ki values for drugs were calculated from observed IC50 values and the Kd value of [Eu]AngII according to the Cheng-Prusoff equation described in Cheng et al. (1973) Biochem Pharmacol. 22 (23):3099-108. Selectivities of test compounds for the AT1 receptor over the AT2 receptor were calculated as the ratio of AT2Ki/AT1Ki. […]

T1 sequence (P08473 52-750 limits assumed): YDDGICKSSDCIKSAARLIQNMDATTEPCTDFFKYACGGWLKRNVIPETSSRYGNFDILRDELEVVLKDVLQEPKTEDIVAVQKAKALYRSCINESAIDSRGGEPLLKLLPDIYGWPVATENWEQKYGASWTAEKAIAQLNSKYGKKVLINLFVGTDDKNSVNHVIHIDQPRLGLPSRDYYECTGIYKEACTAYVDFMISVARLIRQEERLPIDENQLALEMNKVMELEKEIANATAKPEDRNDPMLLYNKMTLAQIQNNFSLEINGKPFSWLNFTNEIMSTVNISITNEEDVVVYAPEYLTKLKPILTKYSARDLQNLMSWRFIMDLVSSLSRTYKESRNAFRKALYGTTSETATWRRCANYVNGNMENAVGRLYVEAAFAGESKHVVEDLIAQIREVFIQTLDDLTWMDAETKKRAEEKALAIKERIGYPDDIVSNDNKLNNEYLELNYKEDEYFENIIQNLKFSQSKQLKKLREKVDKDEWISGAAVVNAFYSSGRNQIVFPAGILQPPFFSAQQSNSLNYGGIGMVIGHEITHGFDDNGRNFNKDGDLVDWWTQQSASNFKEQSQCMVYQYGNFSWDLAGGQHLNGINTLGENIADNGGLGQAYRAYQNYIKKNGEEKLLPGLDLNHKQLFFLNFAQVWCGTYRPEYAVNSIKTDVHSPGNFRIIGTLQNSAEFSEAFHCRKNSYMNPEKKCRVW

Row | Structure (SMILES) | IC50 [1] [nM] | Ki [2] [nM]
1 | CCCc1cc(C(=O)N[C@@H](CS)Cc2ccccc2)nn1Cc1ccc(-c2ccccc2S(=O)(=O)NC(C)=O)cc1 [Example 6-5, 1-(2′-Acetylsulfamoylbiphenyl-4-ylmethyl)-5-propyl-1H-pyrazole-3-carboxylic acid ((R)-1-benzyl-2-mercaptoethyl)amide] | ≤ 100 | ≤ 10
2 | CCCc1cc(C(=O)N[C@@H](CS)Cc2ccccc2)nn1Cc1ccc(-c2ccccc2-c2nnn[nH]2)cc1F [Example 3-2, 1-[3-Fluoro-2′-(1H-tetrazol-5-yl)biphenyl-4-ylmethyl]-5-propyl-1H-pyrazole-3-carboxylic acid ((R)-1-benzyl-2-mercaptoethyl)amide] | ≤ 100 | ≤ 10
3 | CCCc1cc(C(=O)N[C@@H](CS)Cc2ccccc2)nn1Cc1ccc(-c2ccccc2-c2nc(=O)o[nH]2)cc1 [Example 16-1, 1-[2′-(5-Oxo-2,5-dihydro-[1,2,4]oxadiazol-3-yl)biphenyl-4-ylmethyl]-5-propyl-1H-pyrazole-3-carboxylic acid ((R)-1-benzyl-2-mercaptoethyl)amide] | ≤ 100 | ≤ 10
4 | CCOc1cc(C(=O)N[C@@H](CC(=O)O)Cc2ccccc2)nn1Cc1ccc(-c2ccccc2-c2nnn[nH]2)cc1 [Example 3-32, (R)-3-({5-Ethoxy-1-[2′-(1H-tetrazol-5-yl)biphenyl-4-ylmethyl]-1H-pyrazole-3-carbonyl}amino)-4-phenylbutyric acid] | ≤ 10000 | ≤ 100
5 | CCCc1cc(C(=O)N[C@@H](CC(=O)O)Cc2ccccc2Cl)nn1Cc1ccc(-c2ccccc2-c2nnn[nH]2)nc1 [Example 10, (R)-4-(2-Chlorophenyl)-3-[(5-propyl-1-{6-[2-(1H-tetrazol-5-yl)phenyl]pyridin-3-ylmethyl}-1H-pyrazole-3-carbonyl)amino]butyric Acid] | ≤ 100 | ≤ 10
6 | CCCc1cc(C(=O)N[C@H](Cc2ccccc2)[C@@H](O)C(=O)O)nn1Cc1ccc(-c2ccccc2-c2nnn[nH]2)c(F)c1 [Example 3-10, (2R,3R)-3-(1-((2-Fluoro-2′-(1H-tetrazol-5-yl)biphenyl-4-yl)methyl)-5-propyl-1H-pyrazole-3-carboxamido)-2-hydroxy-4-phenylbutanoic acid] | ≤ 1000 | ≤ 10
7 | CCCc1cc(C(=O)N[C@H](Cc2ccccc2)[C@H](O)C(=O)O)nn1Cc1ccc(-c2ccccc2-c2nnn[nH]2)nc1 [Example 14-9, (2S,3R)-2-Hydroxy-4-phenyl-3-[(5-propyl-1-{6-[2-(1H-tetrazol-5-yl)phenyl]pyridin-3-ylmethyl}-1H-pyrazole-3-carbonyl)amino]butyric acid] | ≤ 100 | ≤ 10
8 | CCCc1cc(C(=O)N[C@H](Cc2ccccc2)[C@@H](O)C(=O)OC)nn1Cc1ccc(-c2ccccc2-c2nnn[nH]2)cc1 [Example 3-12, (2R,3R)-2-Hydroxy-4-phenyl-3-({5-propyl-1-[2′-(1H-tetrazol-5-yl)-biphenyl-4-ylmethyl]-1H-pyrazole-3-carbonyl}amino)butyric acid methyl ester] | ≤ 10000 | ≤ 10
9 | CCCc1cc(C(=O)N[C@H](Cc2ccccc2)[C@@H](O)C(=O)O)nn1Cc1ccc(-c2ccccc2C(=O)O)c(F)c1F [Example 9-7, 4′-[3-((1R,2R)-1-Benzyl-2-carboxy-2-hydroxyethylcarbamoyl)-5-propylpyrazol-1-ylmethyl]-2′,3′-difluorobiphenyl-2-carboxylic acid] | ≤ 100 | ≤ 100
10 | CCCc1cc(C(=O)N[C@@H](CS)Cc2ccccc2)nn1Cc1ccc(-c2ccccc2S(=O)(=O)NC(C)=O)c(F)c1 [Example 6-6, 1-(2′-Acetylsulfamoyl-2-fluorobiphenyl-4-ylmethyl)-5-propyl-1H-pyrazole-3-carboxylic acid ((R)-1-benzyl-2-mercaptoethyl)amide] | ≤ 100 | ≤ 10
11 | CCCc1cc(C(=O)N[C@@H](CC(=O)NO)Cc2ccccc2)nn1Cc1ccc(-c2ccccc2-c2nnn[nH]2)cc1 [Example 3-16, 5-Propyl-1-[2′-(1H-tetrazol-5-yl)-biphenyl-4-ylmethyl]-1H-pyrazole-3-carboxylic acid ((R)-1-hydroxycarbamoylmethyl-2-phenylethyl)amide] | ≤ 100 | ≤ 10
12 | CCOc1cc(C(=O)N[C@@H](CS)CC(C)C)nn1Cc1ccc(-c2ccccc2-c2nnn[nH]2)cc1 [Example 3-5, 5-Ethoxy-1-[2′-(1H-tetrazol-5-yl)biphenyl-4-ylmethyl]-1H-pyrazole-3-carboxylic acid ((R)-1-mercaptomethyl-3-methylbutyl)amide] | ≤ 100 | ≤ 100
